ChEMBL document CHEMBL1201862, “PubChem BioAssay data set” (2004)
Activity calls are given as the source filed them.

What was measured:
Troponin, cardiac muscle = Troponin, cardiac muscle (Homo sapiens, UniProt P19429+P45379+P63316); assay: Fluorescence-based biochemical high throughput dose response assay for activators of the calcium sensitivity of cardiac Regulated Thin Filaments (RTF). [Related pubchem assays (depositor defined):AID493008, AID493018, AID504382, AID504383]; format: protein-complex assay
[1] = biological target: G-protein coupled receptor 55 (Homo sapiens, UniProt Q9Y2T6); assay: GPR55 antagonists blocking LPI-driven arrestin recruitment, primary screen, imaging, U2OS, beta-arrestin-GFP, LPI agonist (AID 2013); format: functional;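 further: antagonist potency measured as reduced agonist-driven arrestin aggregation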
Large T antigen = Large T antigen (Simian virus 40, UniProt P03070); format: functional, Betapolyomavirus macacae;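 further: Confirmatory-stage PubChem screen for compounds that inhibit SV40 T antigen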
[2] = biological target: T1, Phosphoethanolamine/phosphocholine phosphatase (Homo sapiens, UniProt Q8TCT1); assay: SAR assay for compounds that inhibit PHOSPHO1. [Related pubchem assays (depositor defined):AID1545, AID1565, AID1574]
T1 sequence (Q8TCT1 whole entry): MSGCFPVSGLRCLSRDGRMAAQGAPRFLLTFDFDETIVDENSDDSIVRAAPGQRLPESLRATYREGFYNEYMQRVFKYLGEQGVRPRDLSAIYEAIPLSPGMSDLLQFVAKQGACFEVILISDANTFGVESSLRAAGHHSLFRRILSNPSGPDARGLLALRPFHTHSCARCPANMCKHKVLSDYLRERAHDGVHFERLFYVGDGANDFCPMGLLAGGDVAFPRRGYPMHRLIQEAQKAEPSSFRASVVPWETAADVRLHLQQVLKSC

[3] = biological target: T2, DNA dC->dU-editing enzyme APOBEC-3A (Homo sapiens, UniProt P31941); assay: APOBEC3A DNA deaminase inhibitors, dose response, biochemical (AID 504722); format: functional
[4] = biological target: T3, DNA dC->dU-editing enzyme APOBEC-3G (Homo sapiens, UniProt Q9HC16); assay: Dose Response confirmation of small molecule APOBEC3G DNA Deaminase Inhibitors via a fluorescence-based single-stranded DNA deaminase assay. [Related pubchem assays (depositor defined):AID493012, AID493028]; format: functional
[5] = biological target: T4, Mannose-6-phosphate isomerase (Homo sapiens, UniProt P34949); assay: PMI enzyme inhibitors, confirmation, biochemical, fluorescence intensity (AID 1535)
T4 sequence (P34949 whole entry): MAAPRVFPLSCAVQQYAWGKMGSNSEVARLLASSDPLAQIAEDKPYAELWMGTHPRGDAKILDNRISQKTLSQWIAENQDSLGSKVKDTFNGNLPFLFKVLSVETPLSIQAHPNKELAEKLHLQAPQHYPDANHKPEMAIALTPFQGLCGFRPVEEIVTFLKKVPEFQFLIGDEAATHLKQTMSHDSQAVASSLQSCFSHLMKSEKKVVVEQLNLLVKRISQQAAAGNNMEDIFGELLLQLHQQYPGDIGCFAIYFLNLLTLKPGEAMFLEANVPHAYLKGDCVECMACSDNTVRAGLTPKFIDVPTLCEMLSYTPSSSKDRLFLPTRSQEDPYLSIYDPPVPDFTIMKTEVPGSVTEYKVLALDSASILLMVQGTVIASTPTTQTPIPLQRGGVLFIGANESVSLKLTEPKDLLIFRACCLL

[6] = Counterscreen for IDE inhibitors: Luminescence-based cell-based high throughput dose response assay to identify compounds that are cytotoxic to HEK cells. [Related pubchem assays: 434962 (Primary screen (IDE inhibitors in singlicate)), 449730 (Counterscreen (Cytotoxicity in triplicate)), 435028 (Confirmation (IDE inhibitors in triplicate)) …; format: functional; conditions: HEK293
[7] = test system: Streptococcus sp. 'group A'; assay: growth inhibition of control SK(-) GAS strain, dose response, counter-screen for streptokinase expression inhibitor project, luminescence, kanamycin, BacTiterGlo, confirmation (AID 1900); format: functional, organism-based
Insulin-degrading enzyme = Insulin-degrading enzyme (Homo sapiens, UniProt P14735); assay: Dose Response: Fluorescence polarization-based cell-based high throughput dose response assay for inhibitors of insulin-degrading enzyme (IDE). [Related pubchem assays: 434962 (Primary screen (IDE inhibitors in singlicate)), 449730 (Counterscreen (Cytotoxicity in triplicate)), 435028 (Confirmation (IDE inhibitors in triplicate)), 434984 (Summary …; format: functional
Phosphomannomutase 2 = biological target: T5, Phosphomannomutase 2 (Homo sapiens, UniProt O15305); assay: Counter screen SAR assay for PMM2 inhibitors via a fluorescence intensity assay. [Related pubchem assays (depositor defined):AID1545, AID1574]
T5 sequence (O15305 whole entry): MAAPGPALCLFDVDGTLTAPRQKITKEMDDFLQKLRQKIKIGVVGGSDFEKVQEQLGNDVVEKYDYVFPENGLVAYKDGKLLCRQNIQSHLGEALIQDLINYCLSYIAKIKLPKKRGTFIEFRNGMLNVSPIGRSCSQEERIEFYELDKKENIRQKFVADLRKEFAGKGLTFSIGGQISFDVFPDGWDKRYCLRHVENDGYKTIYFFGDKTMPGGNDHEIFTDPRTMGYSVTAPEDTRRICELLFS

Streptokinase A = biological target: T6, Streptokinase A (Streptococcus pyogenes serotype M1, UniProt P10520); assay: S. pyogenes streptokinase expression inhibitors, potency, dose response, plasminogen activation absorbance, OD405 (AID 1914); format: functional, Streptococcus pyogenes M1 GAS;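 further: secreted streptokinase activity via plasminogen activation per viability signal from cell pellet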
T6 sequence (P10520 whole entry): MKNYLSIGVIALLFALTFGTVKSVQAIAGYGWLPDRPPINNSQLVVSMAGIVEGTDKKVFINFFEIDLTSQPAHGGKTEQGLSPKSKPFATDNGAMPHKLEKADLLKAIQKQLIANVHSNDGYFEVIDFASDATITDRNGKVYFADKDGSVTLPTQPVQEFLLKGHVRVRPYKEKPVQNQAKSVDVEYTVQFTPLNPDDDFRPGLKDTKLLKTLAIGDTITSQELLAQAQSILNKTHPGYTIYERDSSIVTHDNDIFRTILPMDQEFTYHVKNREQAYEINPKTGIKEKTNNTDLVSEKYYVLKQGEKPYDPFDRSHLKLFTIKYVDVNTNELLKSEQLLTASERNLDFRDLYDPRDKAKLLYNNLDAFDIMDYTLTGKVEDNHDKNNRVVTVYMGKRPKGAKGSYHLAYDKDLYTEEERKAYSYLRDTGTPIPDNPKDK

Streptococcus = assay: Group A Streptococcus viability loss, dose response, counter-screen for streptokinase expression inhibitor project, luminescence, BacTiterGlo (AID 1915); format: functional, organism-based;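 further: potency for reduction of bacterial viability or growth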
[8] = biological target: Eukaryotic translation initiation factor 4E (Mus musculus, UniProt P63073); assay: eIF4E–eIF4G protein interaction inhibitors, dose response, biochemical, TR-FRET (AID 855); format: functional;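 further: potency for disrupting eIF4E binding to eIF4GI seen as loss of FRET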
Bcl-2-like protein 10 = Bcl-2-like protein 10 (Homo sapiens, UniProt Q9HD36); assay: displacers of TR3 peptide from Bcl-B, primary screen, selectivity assay for Bfl-1 inhibitor project, biochemical, fluorescence polarization, FITC-TR3 peptide (AID 748);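 further: fluorescence polarization from a fluorescein-labelled TR3 peptide binding purified Bcl-B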
[9] = biological target: T3, DNA dC->dU-editing enzyme APOBEC-3G; format: functional
[10] = biological target: T7, Carboxy-terminal domain RNA polymerase II polypeptide A small phosphatase 1 (Homo sapiens, UniProt Q9GZU7); assay: inhibitors of CTDSP1, concentration-response testing, biochemical assay, absorbance-based, actives from ultra-high-throughput screening (AID 540297); format: functional
T7 sequence (Q9GZU7 whole entry): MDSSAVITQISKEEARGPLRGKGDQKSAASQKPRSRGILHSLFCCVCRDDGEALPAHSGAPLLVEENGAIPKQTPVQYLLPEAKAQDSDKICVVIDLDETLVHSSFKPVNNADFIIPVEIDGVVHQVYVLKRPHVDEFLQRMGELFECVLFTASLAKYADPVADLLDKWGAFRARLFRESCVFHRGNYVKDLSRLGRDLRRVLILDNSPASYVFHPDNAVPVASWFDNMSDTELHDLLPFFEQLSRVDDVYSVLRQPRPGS

[11] = biological target: T2, DNA dC->dU-editing enzyme APOBEC-3A; assay: Dose Response confirmation of small molecule APOBEC3A DNA Deaminase Inhibitors via a fluorescence-based single-stranded DNA deaminase assay. [Related pubchem assays (depositor defined):AID493011, AID493024]; format: functional
[12] = biological target: DNA damage-inducible transcript 3 protein (Mus musculus, UniProt P35639); format: functional, Cricetulus griseus
CAAX prenyl protease 2 = CAAX prenyl protease 2 (Saccharomyces cerevisiae S288c, UniProt Q03530); format: biochemical
Chain of CAAX prenyl protease 2 (Q03530 whole entry): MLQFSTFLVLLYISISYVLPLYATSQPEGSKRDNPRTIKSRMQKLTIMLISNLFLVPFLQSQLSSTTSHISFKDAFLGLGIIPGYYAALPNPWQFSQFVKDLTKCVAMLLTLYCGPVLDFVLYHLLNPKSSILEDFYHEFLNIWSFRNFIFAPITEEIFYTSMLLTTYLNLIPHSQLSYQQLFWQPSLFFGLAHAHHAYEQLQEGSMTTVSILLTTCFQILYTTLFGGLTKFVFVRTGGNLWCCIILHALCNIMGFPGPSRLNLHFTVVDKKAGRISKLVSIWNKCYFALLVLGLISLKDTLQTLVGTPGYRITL

T3 sequence (Q9HC16 whole entry): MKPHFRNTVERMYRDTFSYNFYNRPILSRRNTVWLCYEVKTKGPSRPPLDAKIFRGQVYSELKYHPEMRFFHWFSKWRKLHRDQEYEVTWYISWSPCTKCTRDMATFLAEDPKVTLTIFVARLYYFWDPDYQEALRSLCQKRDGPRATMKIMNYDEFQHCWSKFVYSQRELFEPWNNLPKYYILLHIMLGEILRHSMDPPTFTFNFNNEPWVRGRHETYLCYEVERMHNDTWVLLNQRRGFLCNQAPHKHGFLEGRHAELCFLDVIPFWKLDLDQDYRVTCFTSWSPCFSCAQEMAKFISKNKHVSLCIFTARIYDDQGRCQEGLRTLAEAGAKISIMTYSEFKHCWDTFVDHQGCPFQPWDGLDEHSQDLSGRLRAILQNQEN
T2 sequence (P31941 whole entry): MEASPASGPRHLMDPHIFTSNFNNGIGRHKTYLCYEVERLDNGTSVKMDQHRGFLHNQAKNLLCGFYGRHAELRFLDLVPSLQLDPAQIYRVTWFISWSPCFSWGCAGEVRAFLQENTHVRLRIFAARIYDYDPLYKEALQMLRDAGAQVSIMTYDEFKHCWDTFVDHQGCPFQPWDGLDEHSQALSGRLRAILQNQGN
Chain of Large T antigen (P03070 whole entry): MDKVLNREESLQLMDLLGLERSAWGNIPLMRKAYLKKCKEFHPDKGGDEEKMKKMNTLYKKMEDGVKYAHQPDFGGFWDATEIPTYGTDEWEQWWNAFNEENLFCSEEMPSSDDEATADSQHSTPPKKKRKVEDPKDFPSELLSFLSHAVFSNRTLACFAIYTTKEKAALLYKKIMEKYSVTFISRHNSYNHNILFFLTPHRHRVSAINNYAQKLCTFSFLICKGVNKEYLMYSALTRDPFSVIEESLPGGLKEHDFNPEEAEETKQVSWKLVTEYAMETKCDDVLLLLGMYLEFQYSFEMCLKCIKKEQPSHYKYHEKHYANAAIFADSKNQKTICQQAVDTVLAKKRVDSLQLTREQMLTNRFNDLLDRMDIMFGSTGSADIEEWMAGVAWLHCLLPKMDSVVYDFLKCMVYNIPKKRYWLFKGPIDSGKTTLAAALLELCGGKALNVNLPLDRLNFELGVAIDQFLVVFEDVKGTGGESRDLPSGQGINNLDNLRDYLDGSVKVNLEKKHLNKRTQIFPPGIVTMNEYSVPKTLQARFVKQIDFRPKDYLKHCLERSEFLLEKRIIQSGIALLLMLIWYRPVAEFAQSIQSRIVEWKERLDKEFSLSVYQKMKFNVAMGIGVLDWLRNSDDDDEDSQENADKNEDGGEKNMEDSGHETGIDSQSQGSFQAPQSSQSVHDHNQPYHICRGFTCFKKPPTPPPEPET
Chain of Eukaryotic translation initiation factor 4E (P63073 whole entry): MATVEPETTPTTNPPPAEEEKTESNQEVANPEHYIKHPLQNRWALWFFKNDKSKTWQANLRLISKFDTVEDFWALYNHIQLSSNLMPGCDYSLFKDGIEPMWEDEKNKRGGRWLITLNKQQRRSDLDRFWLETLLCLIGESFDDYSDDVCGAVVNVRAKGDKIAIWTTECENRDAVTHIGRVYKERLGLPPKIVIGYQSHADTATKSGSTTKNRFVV
Chain of Insulin-degrading enzyme (P14735 whole entry): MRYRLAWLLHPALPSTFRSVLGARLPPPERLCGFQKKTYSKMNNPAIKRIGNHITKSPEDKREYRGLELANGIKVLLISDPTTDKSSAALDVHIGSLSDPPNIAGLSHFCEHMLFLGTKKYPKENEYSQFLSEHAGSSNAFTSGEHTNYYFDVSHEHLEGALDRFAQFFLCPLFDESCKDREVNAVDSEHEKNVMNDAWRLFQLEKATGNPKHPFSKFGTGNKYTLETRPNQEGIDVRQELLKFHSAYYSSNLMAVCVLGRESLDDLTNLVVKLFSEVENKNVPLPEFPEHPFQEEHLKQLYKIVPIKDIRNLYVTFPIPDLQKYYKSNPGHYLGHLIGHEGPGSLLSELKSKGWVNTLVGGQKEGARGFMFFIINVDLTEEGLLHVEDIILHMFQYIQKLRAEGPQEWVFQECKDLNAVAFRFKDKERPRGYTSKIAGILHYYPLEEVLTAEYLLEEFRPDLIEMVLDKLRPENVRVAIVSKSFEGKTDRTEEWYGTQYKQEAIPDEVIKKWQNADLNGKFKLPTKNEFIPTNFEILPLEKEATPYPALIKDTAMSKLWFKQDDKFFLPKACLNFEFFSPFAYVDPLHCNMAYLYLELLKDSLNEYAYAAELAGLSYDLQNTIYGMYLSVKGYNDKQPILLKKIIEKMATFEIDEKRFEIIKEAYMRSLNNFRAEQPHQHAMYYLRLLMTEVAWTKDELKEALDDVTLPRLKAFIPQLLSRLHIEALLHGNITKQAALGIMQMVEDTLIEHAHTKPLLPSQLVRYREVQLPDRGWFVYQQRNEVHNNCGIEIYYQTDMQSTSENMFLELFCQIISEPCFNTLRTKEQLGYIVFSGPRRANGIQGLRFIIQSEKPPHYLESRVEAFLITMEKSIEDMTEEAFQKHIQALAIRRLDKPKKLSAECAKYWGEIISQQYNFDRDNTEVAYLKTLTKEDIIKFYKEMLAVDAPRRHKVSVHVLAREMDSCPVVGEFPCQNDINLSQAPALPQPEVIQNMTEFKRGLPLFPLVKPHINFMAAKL
Chain of Bcl-2-like protein 10 (Q9HD36 whole entry): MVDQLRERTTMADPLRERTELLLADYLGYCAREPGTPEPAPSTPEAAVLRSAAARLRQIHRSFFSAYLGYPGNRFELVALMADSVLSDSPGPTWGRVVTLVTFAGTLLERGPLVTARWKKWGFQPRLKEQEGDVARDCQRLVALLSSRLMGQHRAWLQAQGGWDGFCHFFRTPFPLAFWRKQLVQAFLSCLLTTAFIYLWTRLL
Chain of DNA damage-inducible transcript 3 protein (P35639 whole entry): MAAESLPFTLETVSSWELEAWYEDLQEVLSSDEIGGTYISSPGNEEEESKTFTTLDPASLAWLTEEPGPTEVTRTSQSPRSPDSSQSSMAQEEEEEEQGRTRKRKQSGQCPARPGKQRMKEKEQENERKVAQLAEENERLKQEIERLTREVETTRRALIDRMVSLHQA
Chain of G-protein coupled receptor 55 (Q9Y2T6 whole entry): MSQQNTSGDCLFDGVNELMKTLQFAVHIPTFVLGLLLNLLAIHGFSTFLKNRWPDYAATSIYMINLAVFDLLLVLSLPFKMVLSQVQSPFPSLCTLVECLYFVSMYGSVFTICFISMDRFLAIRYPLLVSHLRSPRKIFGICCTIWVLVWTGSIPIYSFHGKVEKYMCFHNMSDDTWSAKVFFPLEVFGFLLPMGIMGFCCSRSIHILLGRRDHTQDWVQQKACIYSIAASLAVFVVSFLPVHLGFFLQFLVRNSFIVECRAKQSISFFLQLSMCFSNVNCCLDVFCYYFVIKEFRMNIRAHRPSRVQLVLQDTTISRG

With N#C/C(=C\c1c[nH]c2ccccc12)C(=O)Nc1ncc(Cc2ccc(Cl)cc2Cl)s1 the EC50 (Troponin, cardiac muscle) was > 71.5 µM (inactive).

For COc1ccc(N(CC(=O)Nc2nc3ccc(C)cc3s2)S(=O)(=O)c2c(C)nn(C)c2C)cc1, the IC50 [1] was 2.04 µM (active).

With O=c1c2ccccc2sn1-c1cc(S(=O)(=O)N2CCOCC2)ccc1N1CCOCC1 the IC50 (Large T antigen) was 13.2 µM (active), the IC50 [2] was 1.27 µM (inactive) and the IC50 [3] was > 100 µM (inactive). The IC50 [4] was 14 µM (active), the IC50 [5] was 2.6 µM (active) and the IC50 [6] was 11 µM (not active). For the same molecule, the EC50 [7] was 10.2 µM (active), the IC50 (Insulin-degrading enzyme) was 1.44 µM (active) and the IC50 (Phosphomannomutase 2) was 9.87 µM (active). The EC50 (Streptokinase A) was > 150 µM (not active), the EC50 (Streptococcus) was > 150 µM (not active) and the IC50 [8] was 5.36 µM (active).

For O=C(COC(=O)C1CCN(S(=O)(=O)c2cc([N+](=O)[O-])ccc2Cl)CC1)Nc1ncc(Cl)cc1Cl, the IC50 (Bcl-2-like protein 10) was 3.81 µM (active), the IC50 [9] was 36.3 µM (active) and the IC50 [10] was 4.29 µM (active). The IC50 [11] was 17.9 µM (active).

In the case of NC(=O)CC(NC(=O)Cc1cccc2ccccc12)c1ccc(NCc2cc(F)ccc2F)c([N+](=O)[O-])c1 (stereo not given), the “Absolute IC50 (CHOP)” value [12] is reported as 10 µM.

With COc1ccc(NS(=O)(=O)c2ccc3oc(=O)c4[nH]c(=O)c(=O)n(C)c4c3c2)cc1 the AC50 (CAAX prenyl protease 2) was 22.7 µM (active).
